Species on record: Rattus norvegicus
Type: toxicity, organism-based, Sprague-Dawley
Conditions: in vivo, po, route oral GAVAGE, vehicle 100 % SALINE; for ABSOLUTE EOSINOPHIL / ABSOLUTE LYMPHOCYTE / ABSOLUTE MONOCYTE / ABSOLUTE SEGMENTED NEUTROPHIL / BASOPHIL / EOSINOPHIL / ERYTHROCYTE COUNT / HEMATOCRIT / HEMOGLOBIN / LEUKOCYTE COUNT / LYMPHOCYTE / MEAN CORPUSCULAR HEMOGLOBIN / MEAN CORPUSCULAR HEMOGLOBIN CONCENTRATION / MEAN CORPUSCULAR VOLUME / MONOCYTE / NEUTROPHIL / NUCLEATED RED BLOOD CELLS / PLATELET COUNT: tissue Blood; for ALANINE AMINOTRANSFERASE / ALBUMIN / ALKALINE PHOSPHATASE / ASPARTATE AMINOTRANSFERASE / BLOOD UREA NITROGEN / CARBON DIOXIDE / CHLORIDE / CHOLESTEROL / CREATINE PHOSPHOKINASE / CREATININE / GLUCOSE / LACTATE DEHYDROGENASE / LIPASE / PHOSPHORUS / POTASSIUM / SODIUM / TOTAL BILIRUBIN / TOTAL PROTEIN / URIC ACID: tissue Plasma
[1] = 0 mg/kg, 6 h, vehicle control, dose level Control, time 0.25 day
[2] = 0 mg/kg, 24 h, vehicle control, dose level Control, time 1 day
[3] = 10 mg/kg, 6 h, dose level Low, time 0.25 day

Description: DrugMatrix - Regimen: Single

With `O=[As][O-].[Na+]` [SODIUM ARSENITE] the “ABSOLUTE EOSINOPHIL” value [1] was 24 CELLS/uL, the “ABSOLUTE LYMPHOCYTE” value [1] was 11958.17 CELLS/uL and the “ABSOLUTE MONOCYTE” value [1] was 398.83 CELLS/uL. The “ABSOLUTE SEGMENTED NEUTROPHIL” value [1] was 1252.33 CELLS/uL, the BASOPHIL [1] was 0% and the EOSINOPHIL [1] was 0.17%. The “ERYTHROCYTE COUNT” value [1] was 5.37 x10E6/uL, the HEMATOCRIT [1] was 35.6% and the HEMOGLOBIN [1] was 13.05 G/DL. For the same compound, the “LEUKOCYTE COUNT” value [1] was 13.63 x10E3/uL, the LYMPHOCYTE [1] was 87.67% and the “MEAN CORPUSCULAR HEMOGLOBIN” value [1] was 24.28 pg. The “MEAN CORPUSCULAR HEMOGLOBIN CONCENTRATION” value [1] was 36.67 G/DL, the “MEAN CORPUSCULAR VOLUME” value [1] was 66.28 fL and the MONOCYTE [1] was 2.83%. For the same compound, the NEUTROPHIL [1] was 9.33%, the “NUCLEATED RED BLOOD CELLS” value [1] was 0 /100WBC and the “PLATELET COUNT” value [1] was 947.83 x10E3/uL. The “ALANINE AMINOTRANSFERASE” value [1] was 51 u/L, the ALBUMIN [1] was 4.02 G/DL and the “ALKALINE PHOSPHATASE” value [1] was 312.33 u/L. The “ASPARTATE AMINOTRANSFERASE” value [1] was 98.17 u/L, the “BLOOD UREA NITROGEN” value [1] was 9.5 mg/dL and the “CARBON DIOXIDE” value [1] was 18.83 mmol/L. For the same compound, the CHLORIDE [1] was 103.5 MEQ/L, the CHOLESTEROL [1] was 69.5 mg/dL and the “CREATINE PHOSPHOKINASE” value [1] was 580.17 u/L. The CREATININE [1] was 0.53 mg/dL, the GLUCOSE [1] was 175.67 mg/dL and the “LACTATE DEHYDROGENASE” value [1] was 295.5 u/L. The LIPASE [1] was 8.17 u/L, the PHOSPHORUS [1] was 14.12 mg/dL and the POTASSIUM [1] was 5.77 MEQ/L. The SODIUM [1] was 144.13 MEQ/L, the “TOTAL BILIRUBIN” value [1] was 0.12 mg/dL and the “TOTAL PROTEIN” value [1] was 4.87 G/DL. For the same compound, the “URIC ACID” value [1] was 2.25 mg/dL, the “ABSOLUTE EOSINOPHIL” value [2] was 0 CELLS/uL and the “ABSOLUTE LYMPHOCYTE” value [2] was 12232.83 CELLS/uL. For the same compound, the “ABSOLUTE MONOCYTE” value [2] was 20.33 CELLS/uL, the “ABSOLUTE SEGMENTED NEUTROPHIL” value [2] was 780.17 CELLS/uL and the BASOPHIL [2] was 0%. The EOSINOPHIL [2] was 0%, the “ERYTHROCYTE COUNT” value [2] was 5.18 x10E6/uL and the HEMATOCRIT [2] was 33.48%. For the same compound, the HEMOGLOBIN [2] was 13.22 G/DL, the “LEUKOCYTE COUNT” value [2] was 13.03 x10E3/uL and the LYMPHOCYTE [2] was 93.33%. The “MEAN CORPUSCULAR HEMOGLOBIN” value [2] was 25.57 pg, the “MEAN CORPUSCULAR HEMOGLOBIN CONCENTRATION” value [2] was 39.52 G/DL and the “MEAN CORPUSCULAR VOLUME” value [2] was 64.65 fL. For the same compound, the MONOCYTE [2] was 0.17%, the NEUTROPHIL [2] was 6.5% and the “NUCLEATED RED BLOOD CELLS” value [2] was 0 /100WBC. For the same compound, the “PLATELET COUNT” value [2] was 931.5 x10E3/uL, the “ALANINE AMINOTRANSFERASE” value [2] was 60.83 u/L and the ALBUMIN [2] was 4.18 G/DL. For the same compound, the “ALKALINE PHOSPHATASE” value [2] was 283.33 u/L, the “ASPARTATE AMINOTRANSFERASE” value [2] was 80.5 u/L and the “BLOOD UREA NITROGEN” value [2] was 11.83 mg/dL. For the same compound, the “CARBON DIOXIDE” value [2] was 35.33 mmol/L, the CHLORIDE [2] was 98.5 MEQ/L and the CHOLESTEROL [2] was 80 mg/dL. The “CREATINE PHOSPHOKINASE” value [2] was 181.83 u/L, the CREATININE [2] was 0.2 mg/dL and the GLUCOSE [2] was 142.67 mg/dL. The “LACTATE DEHYDROGENASE” value [2] was 65.5 u/L, the LIPASE [2] was 9.83 u/L and the PHOSPHORUS [2] was 9.82 mg/dL. The POTASSIUM [2] was 5.69 MEQ/L, the SODIUM [2] was 143.35 MEQ/L and the “TOTAL BILIRUBIN” value [2] was 0.15 mg/dL. For the same compound, the “TOTAL PROTEIN” value [2] was 6.2 G/DL, the “URIC ACID” value [2] was 0.42 mg/dL and the “ABSOLUTE EOSINOPHIL” value [3] was 25.17 CELLS/uL. The “ABSOLUTE LYMPHOCYTE” value [3] was 12416.17 CELLS/uL, the “ABSOLUTE MONOCYTE” value [3] was 214.33 CELLS/uL and the “ABSOLUTE SEGMENTED NEUTROPHIL” value [3] was 1561 CELLS/uL. For the same compound, the BASOPHIL [3] was 0%, the EOSINOPHIL [3] was 0.17% and the “ERYTHROCYTE COUNT” value [3] was 5.72 x10E6/uL. The HEMATOCRIT [3] was 37.97%, the HEMOGLOBIN [3] was 13.92 G/DL and the “LEUKOCYTE COUNT” value [3] was 14.22 x10E3/uL. The LYMPHOCYTE [3] was 87.33%, the “MEAN CORPUSCULAR HEMOGLOBIN” value [3] was 24.38 pg and the “MEAN CORPUSCULAR HEMOGLOBIN CONCENTRATION” value [3] was 36.67 G/DL. The “MEAN CORPUSCULAR VOLUME” value [3] was 66.45 fL, the MONOCYTE [3] was 1.5% and the NEUTROPHIL [3] was 11%. The “NUCLEATED RED BLOOD CELLS” value [3] was 0 /100WBC, the “PLATELET COUNT” value [3] was 1120 x10E3/uL and the “ALANINE AMINOTRANSFERASE” value [3] was 87.17 u/L. The ALBUMIN [3] was 4.02 G/DL, the “ALKALINE PHOSPHATASE” value [3] was 245.5 u/L and the “ASPARTATE AMINOTRANSFERASE” value [3] was 141.33 u/L. For the same compound, the “BLOOD UREA NITROGEN” value [3] was 12.83 mg/dL, the “CARBON DIOXIDE” value [3] was 19 mmol/L and the CHLORIDE [3] was 104 MEQ/L. For the same compound, the CHOLESTEROL [3] was 63.17 mg/dL, the “CREATINE PHOSPHOKINASE” value [3] was 934.5 u/L and the CREATININE [3] was 0.27 mg/dL. The GLUCOSE [3] was 184.33 mg/dL, the “LACTATE DEHYDROGENASE” value [3] was 393.33 u/L and the LIPASE [3] was 8.83 u/L. The PHOSPHORUS [3] was 14.3 mg/dL, the POTASSIUM [3] was 6.23 MEQ/L and the SODIUM [3] was 142.98 MEQ/L. The “TOTAL BILIRUBIN” value [3] was 0.12 mg/dL, the “TOTAL PROTEIN” value [3] was 5.28 G/DL and the “URIC ACID” value [3] was 2.03 mg/dL.

Source: ChEMBL document CHEMBL3885881, “DrugMatrix”
